pIC50: −log10 of the molar value.
Assays:
BRD4 BD1 = target: T1, BRD4 BD1 (Homo sapiens, UniProt O60885); assay: HTRF in vitro enzyme activity assay, inhibition of BRD4 BD1 binding to acetylated H4 peptide; conditions: IC50 values of the compounds against BRD4 BD1 binding; class symbols A/B/C
T1 construct: Protein BRD4 BD1 used in the assay was purchased from Active Motif (cat. 31380); purchased Active Motif 31380
Procedure, shortened: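 Recombinant human BRD4 BD1 (30 nM final) incubated with compound and biotinylated tetra-acetylated H4(1-21) peptide, 30 min at 37 °C; 5-point 1:5 dilution series, 0.1% DMSO final. HTRF read after 3 h at RT with SA-XL665 and Eu(K)-labelled antibody; IC50 derived.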

[1] = test system: human NMC-derived xenograft; conditions: human NMC-derived xenograft mouse model; cited from earlier work

Row | pIC50 (BRD4 BD1) | SMILES | tumor squamous differentiation and growth [1]
1 | ≥ 8.00 | CC1C(=O)N(C)c2ccc(N3C(=O)c4c(C(=O)NC5CC5)cccc4C3c3ccc(F)cc3)nc2N1CC(F)(F)F (stereo not drawn) [Example A85-P4, N-cyclopropyl-2-(1,3-dimethyl-2-oxo-4-(2,2,2-trifluoroethyl)-1,2,3,4-tetrahydropyrido[2,3-b]pyrazin-6-fluorophenyl)-3-oxoisoindoline-4-carboxamide] | –
2 | ≥ 8.00 | C[C@@H]1C(=O)N(C)c2ccc(N3C(=O)c4c(C(=O)NC5CC5)cccc4C3c3ccc(F)cc3)nc2N1C (stereo partly drawn) [Example A86-P3, N-cyclopropyl-1-(4-fluorophenyl)-3-oxo-2-((R)-1,3,4-trimethyl-2-oxo-1,2,3,4-tetrahydropyrido[2,3-b]pyrazin-6-yl)isoindoline-4-carboxamide] | –
3 | ≥ 8.00 | C[C@@H]1C(=O)N(C)c2ccc(N3C(=O)c4c(C(=O)NC5CC5)cccc4C3c3ccccc3)nc2N1C (stereo partly drawn) [Example A87-P4, N-cyclopropyl-3-oxo-1-phenyl-2-((R)-1,3,4-trimethyl-2-oxo-1,2,3,4-tetrahydropyrido[2,3-b]pyrazin-6-yl)isoindoline-4-carboxamide] | –
4 | ≥ 8.00 | C[C@@H]1C(=O)N(C)c2cnc(N3C(=O)c4ccccc4C3c3cccnc3)nc2N1C (stereo partly drawn) [Example A90-P4, (7R)-5,7,8-trimethyl-2-(1-oxo-3-(pyridin-3-yl)isoindolin-2-yl)-7,8-dihydropteridin-6(5H)-one] | –
5 | ≥ 8.00 | C[C@@H]1C(=O)N(C)c2cnc(N3C(=O)c4c(cccc4C(C)(C)O)C3c3ccc(F)cc3)nc2N1C1CC1 (stereo partly drawn) [Example A94-P4, (7R)-8-cyclopropyl-2-(3-oxo-1-(4-fluorophenyl)-4-(2-hydroxyprop-2-yl)isoindolin-2-yl)-5,7-dimethyl-7,8-dihydropteridin-6(5H)-one] | –
6 | ≥ 8.00 | C[C@@H]1C(=O)N(C)c2cnc(N3C(=O)c4cc(F)ccc4C3c3cccnc3)nc2N1C1CC1 (stereo partly drawn) [Example A95-P4, (7R)-8-cyclopropyl-2-(5-fluoro-3-oxo-1-(pyridin-3-yl)isoindolin-2-yl)-5,7 dimethyl-7,8-dihydropteridin-6(5H)-one] | –
7 | ≥ 8.00 | C[C@@H]1C(=O)N(C)c2cnc(N3C(=O)c4c(cccc4S(C)(=O)=O)C3c3cccnc3)nc2N1C (stereo partly drawn) [Example A103-P1, (7R)-5,7,8-trimethyl-2-(4-(methylsulfonyl)-3-oxo-1-(pyridin-3-yl)isoindolin-2-yl)-7,8-dihydropteridin-6(5H)-one] | –
8 | ≥ 8.00 | C[C@@H]1C(=O)N(C)c2cnc(N3C(=O)c4c(cccc4S(C)(=O)=O)C3(O)c3cccnc3)nc2N1C (stereo partly drawn) [Example A104-P3, (7R)-2-(1-hydroxy-4-(methylsulfonyl)-3-oxo-1-(pyridin-3-yl)isoindolin-2-yl)-5,7,8-trimethyl-7,8-dihydropteridin-6(5H)-one] | –
9 | 7.00 to 8.00 | CCN1C(=O)[C@@H](C)Oc2nc(N3C(=O)c4ccccc4C3c3cccnc3)ccc21 (stereo partly drawn) [Example A108-P3, (R)-1-ethyl-3-methyl-6-(1-oxo-3-(pyridin-3-yl)isoindolin-2-yl)-1H-pyrido[2,3-B][1,4]oxazin-2(3H)-one] | –
10 | 7.00 to 8.00 | CCN1C(=O)[C@@H](C)Oc2nc(N3C(=O)c4ccccc4C3c3ccc(Cl)cc3)ccc21 (stereo partly drawn) [Example A109-P3, (R)-6-(1-(4-chlorophenyl)-3-oxoisoindolin-2-yl)-1-ethyl-3-methyl-1H-pyrido[2,3-B][1,4]oxazin-2-(3H)-one] | –
11 | 6.00 to 7.00 | Cc1ccc(C2c3ccccc3C(=O)N2c2nc3c(cc2F)N(C)C(=O)[C@@H](C)O3)cn1 (stereo partly drawn) [Example A114-P3, (R)-7-fluoro-1,3-dimethyl-6-(1-(6-methylpyridin-3-yl)-3-oxoisoindolin-2-yl)-1H-pyrido[2,3-b][1,4]oxazin-2(3H)-one] | –
12 | 6.00 to 7.00 | C[C@H]1Oc2nc(N3C(=O)c4cc(F)ccc4C3c3cccnc3)ncc2N(C)C1=O (stereo partly drawn) [Example A116-P3, (7R)-2-(5-fluoro-3-oxo-1-(pyridin-3-yl)isoindolin-2-yl)-5,7-dimethyl-5H-pyrimido[4,5-B][1,4]oxazin-6(7H)-one] | –
13 | 6.00 to 7.00 | C[C@H]1Oc2cc(N3C(=O)c4cc(F)ccc4C3c3cccnc3)ncc2N(C)C1=O (stereo partly drawn) [Example A117, (2R)-7-(5-fluoro-3-oxo-1-(pyridin-3-yl)isoindolin-2-yl)-2,4-dimethyl-2H-pyrido[4,3-b][1,4]oxazin-3(4H)-one] | –
14 | 6.00 to 7.00 | C[C@H]1Oc2nc(N3C(=O)c4cc(F)ccc4C3c3cccnc3)c(F)cc2N(C)C1=O (stereo partly drawn) [Example A118, (3R)-7-fluoro-6-(5-fluoro-3-oxo-1-(pyridin-3-yl)isoindolin-2-yl)-1,3-dimethyl-1H-pyrido[2,3-B][1,4]oxazin-2(3H)-one] | –
15 | – | Cc1sc2c(c1C)C(c1ccc(Cl)cc1)=N[C@@H](CC(=O)OC(C)(C)C)c1nnc(C)n1-2 [JQ1] | inhibited tumor squamous differentiation and growth and caused regression

— patent publication US20210261539A1, “COMPOUND HAVING BET INHIBITORY ACTIVITY AND PREPARATION METHOD AND USE THEREFOR” (Shanghai Haihe Pharmaceutical Co., Ltd., priority 2018, published 2021)
